Laboratory results as given in the supplement of paper PMC4862054.

Key:
Conditions in all cases: incubation time: 72 h
[1] = system: HCC1937; assay: normalised response (% of control), CellTox Green; higher = less cell death (100 = DMSO, 0 = benzethonium chloride kill control)
In short: (§1)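 After 72 h with compound in 384-well plates, breast cancer cell lines seeded as 20 µl suspension were read for CellTox Green fluorescence at 485/520 nm. CellTiter-Glo luminescence was then read after 10 min at room temperature. Compound was present at 5 concentrations in 10-fold steps over a 10,000-fold range set per compound, and plates were normalised to 0.1 % DMSO (100) and a positive kill control (0). Values are normalised signals, each at a single concentration.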

[2] = system: BT-549; assay: as above
In short: as §1

[3] = system: BT-474; assay: as above
In short: as §1

[4] = system: MDA-MB-231; assay: as above
In short: as §1

[5] = system: MDA-MB-468; assay: as above
In short: as §1

[6] = system: Hs578T; assay: as above
In short: as §1

[7] = system: CAL-120; assay: as above
In short: as §1

[8] = system: CAL-51; assay: as above
In short: as §1

[9] = system: MDA-MB-453; assay: as above
In short: as §1

[10] = system: MFM-223; assay: as above
In short: as §1

[11] = system: CAL-85-1; assay: as above
In short: as §1

[12] = system: HCC1143; assay: as above
In short: as §1

[13] = system: HDQ-P1; assay: as above
In short: as §1

[14] = system: MDA-MB-436; assay: as above
In short: as §1

[15] = system: DU-4475; assay: as above
In short: as §1

[16] = system: HCC1599; assay: as above
In short: as §1

[17] = system: MCF-10A; assay: as above
In short: as §1

[18] = system: CAL-148; assay: as above
In short: as §1

[19] = system: CAL-51; assay: normalised viability (% of control), CellTiter-Blue; higher = more viable cells (about 100 = DMSO control)
Protocol: (§2)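 DSRT, CellTiter-Blue viability, 72 h incubation. Signal is normalised to DMSO and benzethonium chloride controls. Value is the normalised response at dose 7.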

[20] = system: MDA-MB-453; assay: as above
Protocol: as §2

[21] = system: CAL-85-1; assay: as above
Protocol: as §2

[22] = system: HDQ-P1; assay: as above
Protocol: as §2

[23] = system: DU-4475; assay: as above
Protocol: as §2

[24] = system: CAL-148; assay: as above
Protocol: as §2

SMILES	normalised response [1]	normalised response [2]	normalised response [3]	normalised response [4]	normalised response [5]	normalised response [6]	normalised response [7]	normalised response [8]	normalised response [9]	normalised response [10]	normalised response [11]	normalised response [12]	normalised response [13]	normalised response [14]	normalised response [15]	normalised response [16]	normalised response [17]	normalised response [18]	normalised viability [19]	normalised viability [20]	normalised viability [21]	normalised viability [22]	normalised viability [23]	normalised viability [24]
CN[C@@H]1C[C@H]2O[C@@](C)([C@@H]1OC)n1c3ccccc3c3c4c(c5c6ccccc6n2c5c31)C(=O)N[C@H]4O [UCN-01] (1000 nM)	106%	78.7%	70.9%	32.6%	59.7%	47.3%	59.7%	40.2%	91.4%	67.8%	29.5%	53.2%	63.7%	94.5%	78.3%	79.3%	-24.5%	89.2%	16.8%	30.2%	33.7%	32.1%	10.1%	81.5%
C[C@]12CC[C@@H]3c4ccc(O)cc4C[C@@H](CCCCCCCCC[S+]([O-])CCCC(F)(F)C(F)(F)F)[C@H]3[C@@H]1CC[C@@H]2O (stereo not given in full) [Fulvestrant] (1000 nM)	98.5%	91.9%	102%	115%	–	121%	97.9%	117%	97.9%	97.8%	74.9%	113%	111%	93%	99.7%	98%	101%	100%	111%	84.6%	84.9%	84.3%	93.5%	92.4%
CNCc1ccc(-c2[nH]c3cc(F)cc4c3c2CCNC4=O)cc1 [Rucaparib] (1000 nM)	76%	115%	95.8%	100%	–	110%	97.2%	93.3%	103%	84.5%	71.2%	104%	71.8%	60.3%	95.3%	96.6%	84.3%	100%	103%	102%	85.4%	89.6%	82.3%	92.2%
COc1cc2nccc(Oc3ccc(NC(=O)C4(C(=O)Nc5ccc(F)cc5)CC4)cc3)c2cc1OC [Cabozantinib] (100 nM)	120%	101%	100%	103%	136%	102%	98.2%	100%	99.4%	96.3%	106%	–	91.5%	–	97.5%	92.3%	88.3%	102%	102%	95.3%	79.6%	85.5%	91.8%	107%
C=C(c1ccc(C(=O)O)cc1)c1cc2c(cc1C)C(C)(C)CCC2(C)C [Bexarotene] (1000 nM)	94.8%	98.8%	99.1%	114%	111%	–	99.6%	110%	84.4%	103%	95.7%	83.9%	95.3%	98.4%	99.3%	107%	85%	75.7%	80.6%	86.5%	84.5%	76%	116%	96.6%
COc1cc([C@@H]2c3cc4c(cc3[C@@H](O[C@@H]3O[C@@H]5CO[C@@H](C)O[C@H]5[C@H](O)[C@H]3O)[C@H]3COC(=O)[C@H]23)OCO4)cc(OC)c1O [Etoposide] (1000 nM)	–	109%	101%	–	102%	–	95.7%	50.3%	94.8%	103%	99.6%	120%	95.6%	13.2%	93.7%	97%	110%	30.9%	35.4%	93.4%	90.8%	88.8%	12.3%	63.4%
N[C@@H](CSC(c1ccccc1)(c1ccccc1)c1ccccc1)C(=O)O [S-trityl-L-cysteine] (4000 nM)	85.1%	104%	101%	–	136%	106%	97.9%	105%	101%	–	100%	87%	62.2%	105%	101%	95.5%	116%	98.3%	85.1%	94.3%	98.3%	86.5%	103%	117%
CN(C)/N=N/c1[nH]cnc1C(N)=O [Dacarbazine] (1000 nM)	116%	114%	102%	116%	–	–	100%	105%	103%	–	103%	86.7%	88.7%	77%	101%	101%	111%	101%	85.8%	109%	90%	110%	96.2%	106%
Cn1c(CCCC(=O)O)nc2cc(N(CCCl)CCCl)ccc21 [Bendamustine] (1000 nM)	119%	119%	103%	117%	121%	–	99.9%	116%	104%	105%	101%	84.8%	95.9%	81.8%	103%	101%	67.1%	101%	109%	102%	86.3%	108%	112%	117%
C#Cc1cccc(Nc2ncnc3cc(OCCOC)c(OCCOC)cc23)c1 [Erlotinib] (1000 nM)	121%	96.5%	98.3%	101%	–	99.5%	103%	78.1%	108%	86.7%	70.4%	112%	100%	101%	103%	103%	69.5%	69.6%	92%	91.4%	62.4%	71.6%	94.8%	63%
Cc1ccc(C(=O)Nc2ccc(CN3CCN(C)CC3)c(C(F)(F)F)c2)cc1C#Cc1cnc2cccnn12 [Ponatinib] (100 nM)	92.2%	92%	97.9%	97.6%	96.7%	–	99.1%	99%	105%	98.7%	105%	107%	95.6%	102%	99.3%	97.4%	72.1%	104%	82.9%	77.7%	89.3%	92.8%	104%	94.8%
O=C1CCC(N2C(=O)c3ccccc3C2=O)C(=O)N1 (stereo not given) [Thalidomide] (1000 nM)	99%	–	97.5%	63.5%	130%	97.6%	101%	111%	103%	100%	108%	99%	111%	109%	98.5%	98.2%	–	97.4%	84.8%	103%	99.4%	81.1%	97%	116%
Cn1c(Nc2ccc(C(F)(F)F)cc2)nc2cc(Oc3ccnc(-c4ncc(C(F)(F)F)[nH]4)c3)ccc21 [RAF265] (100 nM)	109%	–	100%	114%	115%	107%	100%	100%	105%	102%	86.3%	96.9%	113%	94.9%	105%	98.6%	107%	107%	86.1%	83.7%	80.5%	74.6%	104%	101%
Cc1ccc(C(=O)N(CCCN)[C@@H](c2oc3cc(Cl)ccc3c(=O)c2Cc2ccccc2)C(C)C)cc1 (100 nM)	84.6%	91.1%	102%	87.5%	59.9%	–	98.8%	74.4%	93.5%	90.5%	99.9%	–	–	105%	95.1%	99.7%	80%	106%	34.7%	25.4%	30.1%	72.5%	43%	18.9%
N.N.[Cl][Pt][Cl] [Cisplatin] (1000 nM)	92.5%	89.3%	103%	94.5%	–	144%	106%	100%	95.4%	93.2%	97.9%	108%	109%	98.4%	97.5%	92%	123%	109%	104%	103%	86.4%	108%	110%	112%
CN(N=O)C(=O)N[C@@H](C=O)[C@@H](O)[C@H](O)[C@H](O)CO [Streptozocin] (1000 nM)	99.3%	99.5%	97.2%	96.8%	90.8%	99%	106%	95.2%	108%	98.3%	110%	113%	92.3%	106%	107%	103%	53.9%	–	103%	105%	91.2%	95.5%	112%	98.6%
